The source of these data is the RepoRT retention time repository (doi:10.1016/j.foodchem.2021.129757).

One series in a line: RP, 100 × 0.5 mm, 2.7 µm, 45 °C, 0.015 mL/min, estimated dead time 0.83 min; A: water + 0.9% formic acid; B: acetonitrile + 0.9% formic acid; gradient (min/%B) 0/1 0.5/1 4/95 4.5/1 5/1. The settings on record: stereoisomer not certain.
On to `O=C(O)C=Cc1ccc(O)cc1` [p-Coumaric acid], for which the LC retention time is 2.3 min.

As for `O=C(O)CNC(=O)c1ccccc1` [Hippuric acid], the LC retention time is 2.13 min.

The nature of a further series: RP, 50 × 0.5 mm, 2.7 µm, 35 °C, 0.01 mL/min, estimated dead time 0.62 min; A: water + 0.1% formic acid, pH 3; B: acetonitrile + 0.1% formic acid, pH 3; gradient (min/%B) 0/5 12/95 14/95 16/5. The settings on record: stereoisomer not certain.
`COc1cc(C(=O)O)ccc1O` [Vanillic acid]: the LC retention time was 2.97 min.

For the compound `O=C(O)C=Cc1ccc(O)cc1` [p-Coumaric acid], the LC retention time was 3.84 min.

With `O=C(O)c1ccc(O)c(O)c1` [Protocatechuic acid], the LC retention time was 1.76 min.

As for `O=C(O)CNC(=O)c1ccccc1` [Hippuric acid], the LC retention time was 2.59 min.

The next series can be described thus: Other, Phenomenex Kinetex PFP, 100 × 4.6 mm, 5 µm, 45 °C, 0.6 mL/min, estimated dead time 1.8 min; A: water + 0.1% trifluoroacetic acid, pH 2; B: methanol; gradient (min/%B) 0/40 20/72 21/40. The settings on record: stereoisomer not certain.
For `O=C(O)C=Cc1ccc(O)cc1` [p-Coumaric acid], the LC retention time is 7.01 min.

For the compound `O=C(O)c1ccc(O)c(O)c1` [Protocatechuic acid], the LC retention time is 3.85 min.

Another series can be described thus: RP, 150 × 2.1 mm, 2.6 µm, 40 °C, 0.35 mL/min, estimated dead time 0.94 min; A: water + 0.1% formic acid, pH 3; B: acetonitrile + 0.1% formic acid, pH 3; gradient (min/%B) 0/0 1/0 12.5/100 14/100 14.2/0 15/0. The settings on record: stereoisomer not certain.
On to `COc1cc(C(=O)O)ccc1O` [Vanillic acid], for which the LC retention time is 3.6 min.

The nature of another series: RP, 150 × 2.1 mm, 2.6 µm, 40 °C, 0.35 mL/min, estimated dead time 0.94 min; A: water + 0.1% formic acid, pH 3; B: acetonitrile + 0.1% formic acid, pH 3; gradient (min/%B) 0/0 1/5 7/45 8.5/80 10.5/80 11/5 12/5. The settings on record: stereoisomer not certain.
As for `COc1cc(C(=O)O)ccc1O` [Vanillic acid], the LC retention time is 3.36 min.

The nature of another series: RP, Phenomenex Kinetex EVO C18, 100 × 2.1 mm, 2.6 µm, 40 °C, 0.4 mL/min, estimated dead time 0.55 min; A: water + 0.2% formic acid; B: acetonitrile + 0.2% formic acid; gradient (min/%B) 0/5 0.5/5 7/95 8/95 8.5/5 12/5. The settings on record: stereoisomer not certain.
As for `O=C(O)c1ccc(O)c(O)c1` [Protocatechuic acid], the LC retention time is 1.55 min.

As for `O=C(O)CNC(=O)c1ccccc1` [Hippuric acid], the LC retention time was 3.8 min.

A further series is described as follows: RP, Phenomenex Synergi Hydro-RP, 150 × 2 mm, 4 µm, 30 °C, 0.5 mL/min, estimated dead time 0.6 min; A: water + 0.1% formic acid, pH 3; B: acetonitrile + 0.1% formic acid, pH 3; gradient (min/%B) 0/5 1/5 35/45 40/100 45/100. The settings on record: stereoisomer not certain.
As to `O=C(O)c1ccc(O)c(O)c1` [Protocatechuic acid], the LC retention time was 5.02 min.

With `O=C(O)CNC(=O)c1ccccc1` [Hippuric acid], the LC retention time is 8.54 min.

A further series can be described thus: RP, Phenomenex Luna Omega Polar C18, 100 × 2.1 mm, 1.6 µm, 40 °C, 0.5 mL/min, estimated dead time 0.44 min; A: water + 0.5% formic acid; B: acetonitrile + 0.5% formic acid; gradient (min/%B) 0/5 3/50 3.1/100 5/100 5.1/5 7/5. The settings on record: stereoisomer not certain.
In the case of `COc1cc(C(=O)O)ccc1O` [Vanillic acid], the LC retention time was 2.07 min.

On to `O=C(O)C=Cc1ccc(O)cc1` [p-Coumaric acid], for which the LC retention time is 2.39 min.

`O=C(O)c1ccc(O)c(O)c1` [Protocatechuic acid]: the LC retention time was 1.54 min.

Regarding `O=C(O)CNC(=O)c1ccccc1` [Hippuric acid], the LC retention time is 2.01 min.

The nature of another series: RP, Phenomenex Luna C18, 150 × 4.6 mm, 3 µm, 25 °C, 0.5 mL/min, estimated dead time 3.2 min; A: water + 0.1% formic acid, pH 3; B: acetonitrile + 0.1% formic acid, pH 3; gradient (min/%B) 0/0 30/30 35/40 50/80 52/80 60/0 65/0. The settings on record: stereoisomer not certain.
Turning to `COc1cc(C(=O)O)ccc1O` [Vanillic acid], the LC retention time is 15.7 min.

Consider `O=C(O)C=Cc1ccc(O)cc1` [p-Coumaric acid], for which the LC retention time was 21.7 min.

As for `O=C(O)c1ccc(O)c(O)c1` [Protocatechuic acid], the LC retention time was 9.27 min.

As for `O=C(O)CNC(=O)c1ccccc1` [Hippuric acid], the LC retention time was 15.1 min.

A short description of another series: RP, Waters ACQUITY UPLC HSS T3, 100 × 2.1 mm, 50 °C; A: water + 0.1% formic acid, pH 3; B: 30% methanol + 70% acetonitrile + 0.1% formic acid, pH 3; gradient (min/%B) 0/5 1/8 2/15 3/40 4/70 4.5/100 5/100 6.4/100 6.6/5 6.8/5 7/5. The settings on record: stereoisomer not certain.
Take `COc1cc(C(=O)O)ccc1O` [Vanillic acid]: the LC retention time came to 3.2 min.

Turning to `O=C(O)C=Cc1ccc(O)cc1` [p-Coumaric acid], the LC retention time turned out to be 3.45 min.

Take `O=C(O)CNC(=O)c1ccccc1` [Hippuric acid]: the LC retention time was found to be 3.07 min.

Another series is described as follows: RP, Merck LiChrospher RP-18, 250 × 4 mm, 5 µm, 35 °C, 0.3 mL/min, estimated dead time 6.7 min; A: water + 0.5% formic acid; B: acetonitrile + 0.5% formic acid; gradient (min/%B) 0/5 10/5 30/15 45/20 65/20 95/54 110/63 115/5 135/5. The settings on record: stereoisomer not certain.
Take `COc1cc(C(=O)O)ccc1O` [Vanillic acid]: the LC retention time was 44.7 min.

Take `O=C(O)C=Cc1ccc(O)cc1` [p-Coumaric acid]: the LC retention time is 56.2 min.

`O=C(O)c1ccc(O)c(O)c1` [Protocatechuic acid]: the LC retention time is 29.7 min.

The next series can be described thus: RP, Phenomenex Luna Omega Polar C18, 100 × 2.1 mm, 1.6 µm, 40 °C, 0.5 mL/min, estimated dead time 0.44 min; A: water + 0.1% formic acid + 10 mM ammonium formate; B: acetonitrile; gradient (min/%B) 0/5 8/20 10/100 12/100 12.1/5 14/5. The settings on record: stereoisomer not certain.
Regarding `COc1cc(C(=O)O)ccc1O` [Vanillic acid], the LC retention time was 4.01 min.

For the compound `O=C(O)C=Cc1ccc(O)cc1` [p-Coumaric acid], the LC retention time was 5.83 min.

With `O=C(O)c1ccc(O)c(O)c1` [Protocatechuic acid], the LC retention time was 2.06 min.

In the case of `O=C(O)CNC(=O)c1ccccc1` [Hippuric acid], the LC retention time was 3.2 min.

The next series in a line: RP, Waters ACQUITY UPLC HSS T3, 100 × 2.1 mm, 1.8 µm, 30 °C, 0.4 mL/min, estimated dead time 0.55 min; A: water + 0.1% formic acid, pH 3; B: acetonitrile + 0.1% formic acid, pH 3; gradient (min/%B) 0/0 2/0 15/100 22/100 22.1/0 26/0. The settings on record: stereoisomer not certain.
For the compound `COc1cc(C(=O)O)ccc1O` [Vanillic acid], the LC retention time was 8.52 min.

As for `O=C(O)C=Cc1ccc(O)cc1` [p-Coumaric acid], the LC retention time was 9.24 min.

For `O=C(O)c1ccc(O)c(O)c1` [Protocatechuic acid], the LC retention time was 7.22 min.

In the case of `O=C(O)CNC(=O)c1ccccc1` [Hippuric acid], the LC retention time was 8.4 min.

The nature of a further series: RP, Agilent ZORBAX Eclipse XDB-C18, 100 × 2.1 mm, 1.8 µm, 50 °C, 0.4 mL/min, estimated dead time 0.55 min; A: water + 0.1% formic acid, pH 3; B: methanol + 0.1% formic acid, pH 3; gradient (min/%B) 0/2 10/100 14.5/100 14.51/2 16.5/2. The settings on record: stereoisomer not certain.
Regarding `COc1cc(C(=O)O)ccc1O` [Vanillic acid], the LC retention time was 3.61 min.

Turning to `O=C(O)C=Cc1ccc(O)cc1` [p-Coumaric acid], the LC retention time was 4.32 min.

As for `O=C(O)c1ccc(O)c(O)c1` [Protocatechuic acid], the LC retention time was 2.31 min.
